Values of other authors in patent publication US20240415846A1, “METHOD OF TREATING AMYOTROPHIC LATERAL SCLEROSIS AND DOSING REGIMEN FOR SAME” (Woolsey Pharmaceuticals, Inc., priority 2021, published 2024).

Settings: 1-hydroxy (M3) metabolite formed in vivo; Shibuya 2001; cited from earlier work

Q: With `O=S(=O)(c1cccc2c(O)nccc12)N1CCCNCC1` [M3] as the compound, how does the half-life read?
A: Its half-life is “about 8 hours”.
